Like-named read-outs stand apart in the source and are kept apart here. Marks after values point to notes of the source that are not given here.

By Ki is commonly meant a dissociation constant, usually derived from enzyme kinetics or from competition with a known ligand. By IC50 is commonly meant the concentration that inhibits the measured activity by half.

One data set deals with 5‐HT2A receptor (Homo sapiens, UniProt P28223). Put plainly: biochemical. It counts as binding.
For data set [1] the following is noted: in vivo.
The target of another data set is human NET (Homo sapiens, UniProt P23975). The data set can be described thus: cell-based. It counts as cell-based.
Another data set concerns the target T1, 5‐HT1A receptor (Homo sapiens, UniProt P08908).
T1 sequence (P08908 1-422): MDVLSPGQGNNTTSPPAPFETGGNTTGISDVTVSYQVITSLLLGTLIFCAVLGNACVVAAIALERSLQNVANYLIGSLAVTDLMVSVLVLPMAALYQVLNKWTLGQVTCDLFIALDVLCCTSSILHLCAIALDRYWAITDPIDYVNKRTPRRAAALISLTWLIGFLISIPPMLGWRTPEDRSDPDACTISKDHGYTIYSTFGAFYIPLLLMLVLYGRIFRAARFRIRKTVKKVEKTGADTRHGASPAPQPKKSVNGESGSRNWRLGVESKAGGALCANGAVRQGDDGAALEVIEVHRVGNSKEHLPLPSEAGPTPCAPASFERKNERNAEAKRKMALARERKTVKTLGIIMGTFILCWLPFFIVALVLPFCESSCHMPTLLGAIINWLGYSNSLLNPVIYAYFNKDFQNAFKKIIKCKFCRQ
The data set can be described thus: biochemical. It counts as binding.

Another data set addresses human DAT (Homo sapiens, UniProt Q01959). Put plainly: cell-based.
The conditions of data set [2]: human.
For data set [3] the following is noted: human. This is another data set of the same source.
For data set [4] the following is noted: in vivo; cited from earlier work.
In the next data set the target is human SERT (Homo sapiens, UniProt P31645). Put plainly: cell-based.
For a further data set, the target named is T2, 5‐HT2C receptor (Homo sapiens, UniProt P28335).
T2 sequence (P28335 33-458): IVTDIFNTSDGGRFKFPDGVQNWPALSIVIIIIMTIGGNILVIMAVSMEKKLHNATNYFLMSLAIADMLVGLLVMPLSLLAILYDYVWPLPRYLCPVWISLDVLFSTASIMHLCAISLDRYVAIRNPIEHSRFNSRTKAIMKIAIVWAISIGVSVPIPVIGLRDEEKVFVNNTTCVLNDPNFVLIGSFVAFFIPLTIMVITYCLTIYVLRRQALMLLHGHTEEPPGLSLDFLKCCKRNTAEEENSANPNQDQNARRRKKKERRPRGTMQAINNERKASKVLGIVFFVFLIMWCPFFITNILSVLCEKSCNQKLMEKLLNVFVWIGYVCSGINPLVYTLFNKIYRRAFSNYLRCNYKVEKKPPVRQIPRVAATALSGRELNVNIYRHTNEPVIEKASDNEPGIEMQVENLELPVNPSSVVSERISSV
The data set can be described thus: biochemical. It counts as binding.

[5] abbreviates: read-out: 5‐HT2A Receptor binding Ki ± SD.
Setting [6] is: read-out: 5‐HT1A Receptor binding Ki ± SD.
Where [7] appears, read: read-out: 5‐HT2C Receptor binding Ki ± SD.

human DAT, sequence (Q01959 whole entry): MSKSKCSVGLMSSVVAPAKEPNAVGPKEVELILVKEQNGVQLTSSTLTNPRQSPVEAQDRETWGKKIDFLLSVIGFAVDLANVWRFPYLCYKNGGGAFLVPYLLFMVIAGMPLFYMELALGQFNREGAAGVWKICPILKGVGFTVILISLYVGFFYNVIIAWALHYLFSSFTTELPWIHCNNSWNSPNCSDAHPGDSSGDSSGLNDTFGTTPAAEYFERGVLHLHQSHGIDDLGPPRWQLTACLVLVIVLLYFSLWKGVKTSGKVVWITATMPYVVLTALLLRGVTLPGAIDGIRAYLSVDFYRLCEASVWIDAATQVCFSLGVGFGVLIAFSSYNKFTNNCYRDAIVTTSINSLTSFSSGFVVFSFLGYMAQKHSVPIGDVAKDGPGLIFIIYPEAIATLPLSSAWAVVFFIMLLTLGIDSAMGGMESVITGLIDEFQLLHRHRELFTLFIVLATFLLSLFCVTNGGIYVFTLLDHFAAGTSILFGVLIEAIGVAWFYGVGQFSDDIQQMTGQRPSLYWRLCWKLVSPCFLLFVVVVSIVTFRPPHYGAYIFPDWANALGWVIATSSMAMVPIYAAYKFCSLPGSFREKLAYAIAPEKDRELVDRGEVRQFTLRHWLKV
5‐HT2A receptor, sequence (P28223 whole entry): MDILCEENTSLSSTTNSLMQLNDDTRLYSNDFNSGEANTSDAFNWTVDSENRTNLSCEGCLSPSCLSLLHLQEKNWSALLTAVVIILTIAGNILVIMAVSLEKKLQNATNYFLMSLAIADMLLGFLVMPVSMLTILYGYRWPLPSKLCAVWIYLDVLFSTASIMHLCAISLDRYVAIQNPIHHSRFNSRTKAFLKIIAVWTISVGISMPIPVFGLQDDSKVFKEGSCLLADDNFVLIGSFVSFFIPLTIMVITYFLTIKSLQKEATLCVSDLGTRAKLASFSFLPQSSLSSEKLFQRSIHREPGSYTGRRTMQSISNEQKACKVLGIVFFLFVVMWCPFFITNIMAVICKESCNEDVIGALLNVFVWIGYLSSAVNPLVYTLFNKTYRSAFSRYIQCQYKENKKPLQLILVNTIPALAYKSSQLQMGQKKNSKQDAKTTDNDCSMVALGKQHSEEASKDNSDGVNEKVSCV
human SERT, sequence (P31645 whole entry): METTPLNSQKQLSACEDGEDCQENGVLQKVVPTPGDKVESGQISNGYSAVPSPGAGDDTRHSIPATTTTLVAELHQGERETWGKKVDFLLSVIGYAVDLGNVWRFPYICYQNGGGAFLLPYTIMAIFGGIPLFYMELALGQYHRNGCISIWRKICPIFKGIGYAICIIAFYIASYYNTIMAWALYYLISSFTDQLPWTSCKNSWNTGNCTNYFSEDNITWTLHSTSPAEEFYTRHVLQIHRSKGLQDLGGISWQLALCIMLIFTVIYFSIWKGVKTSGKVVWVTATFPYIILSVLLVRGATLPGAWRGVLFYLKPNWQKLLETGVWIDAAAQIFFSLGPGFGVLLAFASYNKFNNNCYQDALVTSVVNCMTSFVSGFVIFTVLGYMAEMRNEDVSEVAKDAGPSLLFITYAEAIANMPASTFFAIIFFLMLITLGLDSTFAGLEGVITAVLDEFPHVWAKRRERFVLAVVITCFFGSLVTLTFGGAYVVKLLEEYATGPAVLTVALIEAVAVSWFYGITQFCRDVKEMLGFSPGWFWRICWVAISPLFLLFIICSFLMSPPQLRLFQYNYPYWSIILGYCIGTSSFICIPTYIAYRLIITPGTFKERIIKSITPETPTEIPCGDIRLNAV
human NET, sequence (P23975 whole entry): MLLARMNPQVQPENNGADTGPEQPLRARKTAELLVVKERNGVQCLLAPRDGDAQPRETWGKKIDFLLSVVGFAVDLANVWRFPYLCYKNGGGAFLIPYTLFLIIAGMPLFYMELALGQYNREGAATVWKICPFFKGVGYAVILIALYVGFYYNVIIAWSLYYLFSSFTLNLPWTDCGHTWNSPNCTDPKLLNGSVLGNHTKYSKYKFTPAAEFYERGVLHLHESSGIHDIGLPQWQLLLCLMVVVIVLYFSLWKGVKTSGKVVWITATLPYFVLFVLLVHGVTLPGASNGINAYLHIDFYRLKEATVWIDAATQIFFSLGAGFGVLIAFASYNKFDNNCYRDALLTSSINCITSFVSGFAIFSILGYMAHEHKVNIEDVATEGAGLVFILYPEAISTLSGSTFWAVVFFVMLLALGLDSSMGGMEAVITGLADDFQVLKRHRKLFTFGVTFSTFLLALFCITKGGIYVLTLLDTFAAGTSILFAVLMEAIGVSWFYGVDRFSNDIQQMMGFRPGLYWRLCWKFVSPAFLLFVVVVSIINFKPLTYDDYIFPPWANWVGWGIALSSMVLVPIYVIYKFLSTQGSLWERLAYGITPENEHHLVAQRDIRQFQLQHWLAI

As for `CN(C)C[C@H]1CCCC[C@]1(O)c1cccc(O)c1` (relative stereo) [O‐desmethyltramadol, O‐desmethyl‐cis‐tramadol], the Ki on 5‐HT2A receptor (setting [5]) is greater than 13 µM; on 5‐HT1A receptor (setting [6]), greater than 17 µM. Moreover, in data set [1], the “Cu,brain” value is on record as 0.1–1.1 ^k μM. In addition, the IC50 at human NET (read-out: NET IC50 (95% CI)) is 6.1 µM; at human DAT (read-out: DAT IC50 (95% CI)), greater than 100 µM.
Consider `CN1CC[C@]23c4c5ccc(O)c4O[C@H]2[C@@H](O)C=C[C@H]3[C@H]1C5` [Morphine], for which the results for the Ki on 5‐HT2A receptor and on 5‐HT1A receptor were greater than 13 µM and greater than 17 µM, respectively. Moreover, the “WHO database: cases of serotonin syndrome, only suspected cause” value in data set [2] turned out to be 1. For the same compound, in [2], the “WHO database: cases of serotonin syndrome, only suspected cause or among others” value is given as 64. Besides, the “Medline database: number of published cases of serotonin syndrome” value (“Medline database: number” below) in data set [3] was 4.
As to `COc1ccc2c(c1)[C@]13CCCC[C@@H]1[C@H](C2)N(C)CC3` [Dextromethorphan], the “Cu,brain” value in data set [1] (human) was 0–0.44 ^d μM. The IC50 is 5.8 µM against human NET and greater than 100 µM against human DAT. Besides, in data set [2], the “WHO database: cases of serotonin syndrome, only suspected cause” value came to 7. For the same compound, in data set [2], the “WHO database: cases of serotonin syndrome, only suspected cause or among others” value amounted to 86. The Ki at 5‐HT1A receptor is greater than 17 µM. In data set [3], the “Medline database: number” value is on record as 12.
`COc1cccc(C2(O)CCCCC2CN(C)C)c1` (stereo not shown) [Tramadol]: in data set [4], the “Ctotal,plasma” value is reported as 0.1–2.5 ^a μM. Besides, in data set [1] (human), the “Cu,brain” value is recorded as 0.1–4.6 ^j μM. The IC50 against human NET is 2.1 µM. Further, in data set [2], the “WHO database: cases of serotonin syndrome, only suspected cause” value is listed as 62 and the “WHO database: cases of serotonin syndrome, only suspected cause or among others” value came out at 647. This compound also showed a Ki on 5‐HT1A receptor greater than 17 µM. The compound further registered an IC50 against human DAT of 100 µM. Also, in [3], the “Medline database: number” value is 26.
In the case of `CCC(=O)C(CC(C)N(C)C)(c1ccccc1)c1ccccc1` (stereo not shown) [Methadone], the Ki at 5‐HT2A receptor was 0.61 ± 0.03 µM; at 5‐HT1A receptor, greater than 17 µM; at 5‐HT2C receptor, 2.2 ± 0.3 µM. In addition, the IC50 against human NET is 4.1 µM; on human SERT it was 0.23 µM; against human SERT (SERT inhibition in vitro IC50), 0.23 µM; on human DAT, greater than 100 µM. Moreover, in data set [2], the “WHO database: cases of serotonin syndrome, only suspected cause” value is recorded as 2. In addition, in [2], the “WHO database: cases of serotonin syndrome, only suspected cause or among others” value is listed as 93. Further, in data set [3], the “Medline database: number” value stood at 3.
With `CC(=O)Oc1ccc2c3c1O[C@H]1[C@@H](OC(C)=O)C=C[C@H]4[C@@H](C2)N(C)CC[C@@]341` [Heroin, diacetylmorphine], the Ki was greater than 13 µM at 5‐HT2A receptor and greater than 17 µM on 5‐HT1A receptor. Also, the IC50 against human NET, on human SERT and against human DAT was greater than 100 µM each time.
Regarding `CNCCC(Oc1ccc(C(F)(F)F)cc1)c1ccccc1` (stereo not shown) [Fluoxetine], in [2], the “WHO database: cases of serotonin syndrome, only suspected cause” value was 181 and the “WHO database: cases of serotonin syndrome, only suspected cause or among others” value was 641. In data set [3], the “Medline database: number” value came to 54.
For `COc1ccc2c3c1O[C@H]1[C@@H](O)C=C[C@H]4[C@@H](C2)N(C)CC[C@@]341` [Codeine], the values for the Ki on 5‐HT2A receptor and on 5‐HT1A receptor were greater than 13 µM and greater than 17 µM, respectively. The half-inhibitory concentration (IC50) against human NET, against human SERT and against human DAT was greater than 100 µM throughout. Moreover, the “WHO database: cases of serotonin syndrome, only suspected cause” value in [2] amounted to 0. Also, the “WHO database: cases of serotonin syndrome, only suspected cause or among others” value in data set [2] worked out at 32. In addition, in data set [3], the “Medline database: number” value worked out at 0.
Consider `CNCC[C@H](Oc1cccc2ccccc12)c1cccs1` [Duloxetine], for which, in data set [2], the “WHO database: cases of serotonin syndrome, only suspected cause” value is reported as 550 and the “WHO database: cases of serotonin syndrome, only suspected cause or among others” value amounted to 993. In [3], the “Medline database: number” value is reported as 20.
Consider `COc1ccc2c3c1O[C@H]1C(=O)CC[C@H]4[C@@H](C2)N(C)CC[C@]314` [Hydrocodone], for which the Ki on 5‐HT2A receptor is greater than 13 µM; on 5‐HT1A receptor, greater than 17 µM. The IC50 against human NET, at human SERT and against human DAT was greater than 100 µM in each case. Further, in data set [2], the “WHO database: cases of serotonin syndrome, only suspected cause” value is on record as 0. The “WHO database: cases of serotonin syndrome, only suspected cause or among others” value in [2] came out at 6. For the same compound, in [3], the “Medline database: number” value was 2.
On to `CCC(=O)C(C[C@H](C)N(C)C)(c1ccccc1)c1ccccc1` [d(S)‐methadone], for which the Ki is 0.52 ± 0.11 µM at 5‐HT2A receptor (setting [5]), greater than 17 µM at 5‐HT1A receptor (setting [6]) and 1.9 ± 0.2 µM at 5‐HT2C receptor (setting [7]). Besides, the IC50 at human NET (read-out: NET IC50 (95% CI)) was 69 µM; at human SERT (read-out: SERT IC50 (95% CI)) it was 5.6 µM; at human DAT (read-out: DAT IC50 (95% CI)), greater than 100 µM.
With `CN(C)CCCC1(c2ccc(F)cc2)OCc2cc(C#N)ccc21` (stereo not shown) [Citalopram], in data set [2], the “WHO database: cases of serotonin syndrome, only suspected cause” value is recorded as 178 and the “WHO database: cases of serotonin syndrome, only suspected cause or among others” value worked out at 777. Further, the “Medline database: number” value in [3] turned out to be 57.
Take `CCC(=O)C(C[C@@H](C)N(C)C)(c1ccccc1)c1ccccc1` [l(R)‐methadone]: the figures for the inhibition constant Ki at 5‐HT2A receptor (setting [5]), on 5‐HT1A receptor (setting [6]) and on 5‐HT2C receptor (setting [7]) were 0.72 ± 0.61 µM, greater than 17 µM and 2.6 ± 0.3 µM, respectively. Further, the IC50 on human NET (read-out: NET IC50 (95% CI)) is 2.5 µM; on human SERT (read-out: SERT IC50 (95% CI)) it was 0.28 µM; at human DAT (read-out: DAT IC50 (95% CI)), greater than 100 µM.
Take `COc1ccc2c3c1O[C@H]1[C@@H](O)CC[C@H]4[C@@H](C2)N(C)CC[C@@]341` [Dihydrocodeine]: the Ki at 5‐HT2A receptor is greater than 13 µM; at 5‐HT1A receptor, greater than 17 µM. The IC50 at human NET, against human SERT and against human DAT was greater than 100 µM in each case. The “WHO database: cases of serotonin syndrome, only suspected cause” value in data set [2] is reported as 0. Also, in [2], the “WHO database: cases of serotonin syndrome, only suspected cause or among others” value amounted to 4. Moreover, the “Medline database: number” value in [3] is 0.
Turning to `CN1CC[C@]23c4c5ccc(O)c4O[C@H]2C(=O)CC[C@@]3(O)[C@H]1C5` [Oxymorphone], the Ki is greater than 13 µM on 5‐HT2A receptor and greater than 17 µM on 5‐HT1A receptor. For the same compound, the IC50 at human NET, against human SERT and against human DAT was greater than 100 µM each time. Also, the “WHO database: cases of serotonin syndrome, only suspected cause” value in [2] turned out to be 0. Further, in [2], the “WHO database: cases of serotonin syndrome, only suspected cause or among others” value stood at 3. In addition, in [3], the “Medline database: number” value is reported as 0.
As to `CC(=O)O[C@H]1C=C[C@H]2[C@H]3Cc4ccc(O)c5c4[C@@]2(CCN3C)[C@H]1O5` [6‐Acetylmorphine, 6‐acetylmorphine], the Ki at 5‐HT2A receptor was greater than 13 µM; on 5‐HT1A receptor it was greater than 17 µM. In addition, the IC50 at human NET, against human SERT and against human DAT was greater than 100 µM in each case.
Consider `COc1ccc(C(CN(C)C)C2(O)CCCCC2)cc1` (stereo not shown) [Venlafaxine], for which the “WHO database: cases of serotonin syndrome, only suspected cause” value in [2] stood at 240. In addition, the “WHO database: cases of serotonin syndrome, only suspected cause or among others” value in [2] is 859. In addition, the values for the Ki on 5‐HT1A receptor and on 5‐HT2C receptor were greater than 17 µM and greater than 15 µM, respectively. For the same compound, the “Medline database: number” value in data set [3] was 75.

The values are drawn from paper PMC5773950 (British Journal of Pharmacology, 2018).
